From US20090299044A1 (priority 2006, published 2009)
Bridge positions count the residues as written; N and C are the ends. Square brackets hold non-standard residues; d marks the D form. Peptide text beside a SMILES is read from it. 1Nal = N[C@@H](Cc1cccc2ccccc12)C(=O)O

Assays:
human Kv1.1 (HEK293) = molecular target: T1, human Kv1.1 (HEK293) (Homo sapiens, UniProt Q09470); assay: cell-based
T1 construct: expressed in transfected cells; host or cells: HEK293

human Kv1.3 (CHO) = molecular target: T2, human Kv1.3 (CHO) (Homo sapiens, UniProt P22001); assay: cell-based
T2 construct: expressed in transfected cells; host or cells: CHO
T2 sequence (P22001 whole entry): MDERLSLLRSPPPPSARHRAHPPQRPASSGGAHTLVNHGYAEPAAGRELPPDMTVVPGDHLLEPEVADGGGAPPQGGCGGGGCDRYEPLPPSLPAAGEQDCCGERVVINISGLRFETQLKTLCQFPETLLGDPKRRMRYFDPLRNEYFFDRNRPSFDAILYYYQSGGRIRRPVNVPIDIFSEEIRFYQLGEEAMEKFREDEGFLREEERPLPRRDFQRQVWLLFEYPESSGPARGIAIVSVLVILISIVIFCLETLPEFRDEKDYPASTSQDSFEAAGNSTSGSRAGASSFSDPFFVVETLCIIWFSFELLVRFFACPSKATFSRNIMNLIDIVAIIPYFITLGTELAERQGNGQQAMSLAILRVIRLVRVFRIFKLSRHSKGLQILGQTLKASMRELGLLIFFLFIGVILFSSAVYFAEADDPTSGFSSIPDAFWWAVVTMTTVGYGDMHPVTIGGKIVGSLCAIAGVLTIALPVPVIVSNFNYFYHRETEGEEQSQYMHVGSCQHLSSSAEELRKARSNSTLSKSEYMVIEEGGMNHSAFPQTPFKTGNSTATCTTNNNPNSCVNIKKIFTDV

T1 sequence (Q09470 whole entry): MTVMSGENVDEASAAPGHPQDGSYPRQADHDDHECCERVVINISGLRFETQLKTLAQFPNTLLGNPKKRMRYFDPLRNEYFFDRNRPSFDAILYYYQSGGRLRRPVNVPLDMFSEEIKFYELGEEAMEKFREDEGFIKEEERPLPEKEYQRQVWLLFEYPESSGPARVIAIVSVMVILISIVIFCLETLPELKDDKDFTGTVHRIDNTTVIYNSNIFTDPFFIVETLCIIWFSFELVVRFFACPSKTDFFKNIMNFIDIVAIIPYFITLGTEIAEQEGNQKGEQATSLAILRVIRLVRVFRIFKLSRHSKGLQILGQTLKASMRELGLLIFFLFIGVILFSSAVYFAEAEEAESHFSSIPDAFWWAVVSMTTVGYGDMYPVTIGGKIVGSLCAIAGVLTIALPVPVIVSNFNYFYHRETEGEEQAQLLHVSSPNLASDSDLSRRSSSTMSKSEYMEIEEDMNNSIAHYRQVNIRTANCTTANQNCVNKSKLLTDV

`CC[C@H](C)[C@@H]1NC(=O)[C@H](CCCCN)NC(=O)[C@@H](NC(=O)[C@H](CCCCN)NC(=O)[C@@H](NC(=O)[C@H](CC(N)=O)NC(=O)[C@@H](NC(=O)[C@@H](NC(=O)[C@@H](NC(=O)CN)C(C)C)[C@@H](C)CC)[C@@H](C)CC)C(C)C)CSSC[C@@H]2NC(=O)[C@H](CCCCN)NC(=O)CNC(=O)[C@H](Cc3ccccc3)NC(=O)[C@H](CCCNC(=N)N)NC(=O)[C@H](CCSC)NC(=O)CNC(=O)[C@H](C)NC(=O)[C@H](CCC(=O)O)NC(=O)[C@H](CCCCN)NC(=O)[C@@H]3CSSC[C@@H](C(=O)N[C@H](C(=O)N4CCC[C@H]4C(=O)N[C@@H](CCCCN)C(=O)O)[C@@H](C)O)NC(=O)[C@H](Cc4c[nH]cn4)NC(=O)[C@H](CSSC[C@H](NC(=O)[C@H](CCC(N)=O)NC(=O)[C@H](CCCNC(=N)N)NC(=O)[C@H](CO)NC1=O)C(=O)N[C@@H](CC(C)C)C(=O)N[C@@H](CCC(=O)O)C(=O)N1CCC[C@H]1C(=O)N3)NC(=O)[C@H](CCCCN)NC(=O)CNC(=O)[C@H](CC(N)=O)NC(=O)[C@H](CCSC)NC2=O` [K20E] (H-GVIINVKCKISRQCLEPCKEAGMRFGKCMNGKCHCTPK-OH; disulfide 8-28, 14-33, 18-35) gave an IC50 (human Kv1.1 (HEK293)) of 0.00576 nM and an IC50 (human Kv1.3 (CHO)) of 0.0254 nM.
`CC[C@H](C)[C@@H]1NC(=O)[C@H](CCCCN)NC(=O)[C@@H](NC(=O)[C@H](CCCCN)NC(=O)[C@@H](NC(=O)[C@H](CC(N)=O)NC(=O)[C@@H](NC(=O)[C@@H](NC(=O)[C@@H](NC(=O)CN)C(C)C)[C@@H](C)CC)[C@@H](C)CC)C(C)C)CSSC[C@@H]2NC(=O)[C@H](CCCCN)NC(=O)CNC(=O)[C@H](Cc3ccccc3)NC(=O)[C@H](CCCNC(=N)N)NC(=O)[C@H](CCSC)NC(=O)CNC(=O)[C@H](C)NC(=O)[C@H](CCCNC(=N)N)NC(=O)[C@H](CCCCN)NC(=O)[C@@H]3CSSC[C@@H](C(=O)N[C@H](C(=O)N4CCC[C@H]4C(=O)N[C@@H](CCCCN)C(=O)O)[C@@H](C)O)NC(=O)[C@H](Cc4c[nH]cn4)NC(=O)[C@H](CSSC[C@H](NC(=O)[C@H](CCC(N)=O)NC(=O)[C@H](CCCNC(=N)N)NC(=O)[C@H](CO)NC1=O)C(=O)N[C@@H](CC(C)C)C(=O)N[C@@H](CCC(=O)O)C(=O)N1CCC[C@H]1C(=O)N3)NC(=O)[C@H](CCCCN)NC(=O)CNC(=O)[C@H](CC(N)=O)NC(=O)[C@H](CCSC)NC2=O` [K20R] (H-GVIINVKCKISRQCLEPCKRAGMRFGKCMNGKCHCTPK-OH; disulfide 8-28, 14-33, 18-35) showed an IC50 (human Kv1.1 (HEK293)) of under 0.00152 nM and an IC50 (human Kv1.3 (CHO)) of 0.00985 nM.
With `CC[C@H](C)[C@@H]1NC(=O)[C@H](CCCCN)NC(=O)[C@@H](NC(=O)[C@H](CCCCN)NC(=O)[C@@H](NC(=O)[C@H](CC(N)=O)NC(=O)[C@@H](NC(=O)[C@@H](NC(=O)[C@@H](NC(=O)CN)C(C)C)[C@@H](C)CC)[C@@H](C)CC)C(C)C)CSSC[C@@H]2NC(=O)[C@H](CCC(=O)O)NC(=O)CNC(=O)[C@H](Cc3ccccc3)NC(=O)[C@H](CCCNC(=N)N)NC(=O)[C@H](CCSC)NC(=O)CNC(=O)[C@H](C)NC(=O)[C@H](CCCCN)NC(=O)[C@H](CCCCN)NC(=O)[C@@H]3CSSC[C@@H](C(=O)N[C@H](C(=O)N4CCC[C@H]4C(=O)N[C@@H](CCCCN)C(=O)O)[C@@H](C)O)NC(=O)[C@H](Cc4c[nH]cn4)NC(=O)[C@H](CSSC[C@H](NC(=O)[C@H](CCC(N)=O)NC(=O)[C@H](CCCNC(=N)N)NC(=O)[C@H](CO)NC1=O)C(=O)N[C@@H](CC(C)C)C(=O)N[C@@H](CCC(=O)O)C(=O)N1CCC[C@H]1C(=O)N3)NC(=O)[C@H](CCCCN)NC(=O)CNC(=O)[C@H](CC(N)=O)NC(=O)[C@H](CCSC)NC2=O` [K27E] (H-GVIINVKCKISRQCLEPCKKAGMRFGECMNGKCHCTPK-OH; disulfide 8-28, 14-33, 18-35) the IC50 (human Kv1.1 (HEK293)) was 0.549 nM and the IC50 (human Kv1.3 (CHO)) was over 3.33 nM.
`CC[C@H](C)[C@@H]1NC(=O)[C@H](CCCCN)NC(=O)[C@@H](NC(=O)[C@H](CCCCN)NC(=O)[C@@H](NC(=O)[C@H](CC(N)=O)NC(=O)[C@@H](NC(=O)[C@@H](NC(=O)[C@@H](NC(=O)CN)C(C)C)[C@@H](C)CC)[C@@H](C)CC)C(C)C)CSSC[C@@H]2NC(=O)[C@H](Cc3cccc4ccccc34)NC(=O)CNC(=O)[C@H](Cc3ccccc3)NC(=O)[C@H](CCCNC(=N)N)NC(=O)[C@H](CCSC)NC(=O)CNC(=O)[C@H](C)NC(=O)[C@H](CCCCN)NC(=O)[C@H](CCCCN)NC(=O)[C@@H]3CSSC[C@@H](C(=O)N[C@H](C(=O)N4CCC[C@H]4C(=O)N[C@@H](CCCCN)C(=O)O)[C@@H](C)O)NC(=O)[C@H](Cc4c[nH]cn4)NC(=O)[C@H](CSSC[C@H](NC(=O)[C@H](CCC(N)=O)NC(=O)[C@H](CCCNC(=N)N)NC(=O)[C@H](CO)NC1=O)C(=O)N[C@@H](CC(C)C)C(=O)N[C@@H](CCC(=O)O)C(=O)N1CCC[C@H]1C(=O)N3)NC(=O)[C@H](CCCCN)NC(=O)CNC(=O)[C@H](CC(N)=O)NC(=O)[C@H](CCSC)NC2=O` [K27Nal] (H-GVIINVKCKISRQCLEPCKKAGMRFG[1Nal]CMNGKCHCTPK-OH; disulfide 8-28, 14-33, 18-35) gave an IC50 (human Kv1.1 (HEK293)) of 1.04 nM and an IC50 (human Kv1.3 (CHO)) of over 3.33 nM.
`CC[C@H](C)[C@@H]1NC(=O)[C@H](CCCCN)NC(=O)[C@@H](NC(=O)[C@H](CCCCN)NC(=O)[C@@H](NC(=O)[C@H](CC(N)=O)NC(=O)[C@@H](NC(=O)[C@@H](NC(=O)[C@@H](NC(=O)CN)C(C)C)[C@@H](C)CC)[C@@H](C)CC)C(C)C)CSSC[C@@H]2NC(=O)[C@H](CCCNC(=N)N)NC(=O)CNC(=O)[C@H](Cc3ccccc3)NC(=O)[C@H](CCCNC(=N)N)NC(=O)[C@H](CCSC)NC(=O)CNC(=O)[C@H](C)NC(=O)[C@H](CCCCN)NC(=O)[C@H](CCCCN)NC(=O)[C@@H]3CSSC[C@@H](C(=O)N[C@H](C(=O)N4CCC[C@H]4C(=O)N[C@@H](CCCCN)C(=O)O)[C@@H](C)O)NC(=O)[C@H](Cc4c[nH]cn4)NC(=O)[C@H](CSSC[C@H](NC(=O)[C@H](CCC(N)=O)NC(=O)[C@H](CCCNC(=N)N)NC(=O)[C@H](CO)NC1=O)C(=O)N[C@@H](CC(C)C)C(=O)N[C@@H](CCC(=O)O)C(=O)N1CCC[C@H]1C(=O)N3)NC(=O)[C@H](CCCCN)NC(=O)CNC(=O)[C@H](CC(N)=O)NC(=O)[C@H](CCSC)NC2=O` [K27R] (H-GVIINVKCKISRQCLEPCKKAGMRFGRCMNGKCHCTPK-OH; disulfide 8-28, 14-33, 18-35) gave an IC50 (human Kv1.1 (HEK293)) of over 3.33 nM and an IC50 (human Kv1.3 (CHO)) of 1.49 nM.
In the case of `CC[C@H](C)[C@@H]1NC(=O)[C@H](CCCCN)NC(=O)[C@@H](NC(=O)[C@H](CCCCN)NC(=O)[C@@H](NC(=O)[C@H](CC(N)=O)NC(=O)[C@@H](NC(=O)[C@@H](NC(=O)[C@@H](NC(=O)CN)C(C)C)[C@@H](C)CC)[C@@H](C)CC)C(C)C)CSSC[C@@H]2NC(=O)[C@H](CCCCN)NC(=O)CNC(=O)[C@H](Cc3ccccc3)NC(=O)[C@H](CCCNC(=N)N)NC(=O)[C@H](CCSC)NC(=O)CNC(=O)[C@H](C)NC(=O)[C@H](CCCCN)NC(=O)[C@H](CCCCN)NC(=O)[C@@H]3CSSC[C@@H](C(=O)N[C@H](C(=O)N4CCC[C@H]4C(=O)N[C@@H](CCCCN)C(=O)O)[C@@H](C)O)NC(=O)[C@H](Cc4c[nH]cn4)NC(=O)[C@H](CSSC[C@H](NC(=O)[C@H](CCC(N)=O)NC(=O)[C@H](CCCNC(=N)N)NC(=O)[C@H](CO)NC1=O)C(=O)N[C@@H](CC(C)C)C(=O)N[C@@H](CCC(=O)O)C(=O)N1CCC[C@H]1C(=O)N3)NC(=O)[C@H](CCC(=O)O)NC(=O)CNC(=O)[C@H](CC(N)=O)NC(=O)[C@H](CCSC)NC2=O` [K32E] (H-GVIINVKCKISRQCLEPCKKAGMRFGKCMNGECHCTPK-OH; disulfide 8-28, 14-33, 18-35), the IC50 (human Kv1.1 (HEK293)) is reported as 0.0173 nM and the IC50 (human Kv1.3 (CHO)) is reported as 0.0156 nM.
Work on `CC[C@H](C)[C@@H]1NC(=O)[C@H](CCCCN)NC(=O)[C@@H](NC(=O)[C@H](CCCCN)NC(=O)[C@@H](NC(=O)[C@H](CC(N)=O)NC(=O)[C@@H](NC(=O)[C@@H](NC(=O)[C@@H](NC(=O)CN)C(C)C)[C@@H](C)CC)[C@@H](C)CC)C(C)C)CSSC[C@@H]2NC(=O)[C@H](CCCCN)NC(=O)CNC(=O)[C@H](Cc3ccccc3)NC(=O)[C@H](CCCNC(=N)N)NC(=O)[C@H](CCSC)NC(=O)CNC(=O)[C@H](C)NC(=O)[C@H](CCCCN)NC(=O)[C@H](CCCCN)NC(=O)[C@@H]3CSSC[C@@H](C(=O)N[C@H](C(=O)N4CCC[C@H]4C(=O)N[C@@H](CCCCN)C(=O)O)[C@@H](C)O)NC(=O)[C@H](Cc4c[nH]cn4)NC(=O)[C@H](CSSC[C@H](NC(=O)[C@H](CCC(N)=O)NC(=O)[C@H](CCCNC(=N)N)NC(=O)[C@H](CO)NC1=O)C(=O)N[C@@H](CC(C)C)C(=O)N[C@@H](CCC(=O)O)C(=O)N1CCC[C@H]1C(=O)N3)NC(=O)[C@H](CCCNC(=N)N)NC(=O)CNC(=O)[C@H](CC(N)=O)NC(=O)[C@H](CCSC)NC2=O` [K32R] (H-GVIINVKCKISRQCLEPCKKAGMRFGKCMNGRCHCTPK-OH; disulfide 8-28, 14-33, 18-35) yielded an IC50 (human Kv1.1 (HEK293)) of 0.00724 nM and an IC50 (human Kv1.3 (CHO)) of 0.0308 nM.
`CC[C@H](C)[C@@H]1NC(=O)[C@H](CCCCN)NC(=O)[C@@H](NC(=O)[C@H](CCCCN)NC(=O)[C@@H](NC(=O)[C@H](CC(N)=O)NC(=O)[C@@H](NC(=O)[C@@H](NC(=O)[C@@H](NC(=O)CN)C(C)C)[C@@H](C)CC)[C@@H](C)CC)C(C)C)CSSC[C@@H]2NC(=O)[C@H](CCCCN)NC(=O)CNC(=O)[C@H](Cc3ccccc3)NC(=O)[C@H](CCCNC(=N)N)NC(=O)[C@H](CCSC)NC(=O)CNC(=O)[C@H](C)NC(=O)[C@H](CCCCN)NC(=O)[C@H](CCCCN)NC(=O)[C@@H]3CSSC[C@@H](C(=O)N[C@H](C(=O)N4CCC[C@H]4C(=O)N[C@@H](CCC(=O)O)C(=O)O)[C@@H](C)O)NC(=O)[C@H](Cc4c[nH]cn4)NC(=O)[C@H](CSSC[C@H](NC(=O)[C@H](CCC(N)=O)NC(=O)[C@H](CCCNC(=N)N)NC(=O)[C@H](CO)NC1=O)C(=O)N[C@@H](CC(C)C)C(=O)N[C@@H](CCC(=O)O)C(=O)N1CCC[C@H]1C(=O)N3)NC(=O)[C@H](CCCCN)NC(=O)CNC(=O)[C@H](CC(N)=O)NC(=O)[C@H](CCSC)NC2=O` [K38E] (H-GVIINVKCKISRQCLEPCKKAGMRFGKCMNGKCHCTPE-OH; disulfide 8-28, 14-33, 18-35) was tested, and the IC50 (human Kv1.1 (HEK293)) was 0.0343 nM and the IC50 (human Kv1.3 (CHO)) was 0.0258 nM.
